Converted amounts (≈) assume the structure as drawn.
Assays:
[1] = Solubility study with buffer (pH dependent solubility testing); conditions: thermodynamic from solid
Procedure: Solubility Study with Buffer (pH Dependent Solubility Testing)
A phase solubility study was performed for different buffers to analyse the effect of pH on the solubility of Orellanine. Four buffers were tested: • Acetate buffer pH 4.5 at 50 mM-prepared from 1.81 g sodium acetate and 14 ml of acetic acid (2N), adjusted up to 11 with water for injection (WFI). • Phosphate buffer pH 5.8 at 50 mM-prepared from 92 ml of NaH2PO4 and 8 ml of Na2HPO4, adjusted to 200 ml with WFI. • Phosphate buffer pH 6.8 at 50 mM-prepared from 51 ml of NaH2PO4 and 49 ml of Na2HPO4, adjusted to 200 ml with WFI. • Phosphate buffer pH 7.4 at 50 mM-prepared from 19 ml of NaH2PO4 and 81 ml of Na2HPO4, adjusted to 200 ml with WFI.
(§1) The pH of each buffer was adjusted with a pH meter and sodium hydroxide or hydrochloric acid at 0.2M.
Each suspension was centrifuged at 5300 rpm for 15 minutes. The supernatant was filtered with a 0.45 μm nylon filter.

[2] = Solubility study with different buffer concentrations at pH 7.4; conditions: phosphate buffer, pH 7.4, aqueous buffer, thermodynamic from solid; for solubility thermodynamic at 24 h: Concentration of Orellanine, pH adjusted to 7.4 after 3 hours, stirred 24 hours at room temperature
Procedure: Solubility Study with Different Buffer Concentrations at pH 7.4
The impact of buffer concentration was assessed. Three buffers were used: • Phosphate buffer pH 7.4 at 25 mM-prepared from 0.95 ml of NaH2PO4 (0.1M) and 4.05 ml of Na2HPO4 (0.1M), adjusted to 20 ml with WFI. • Phosphate buffer pH 7.4 at 50 mM-prepared from 19 ml of NaH2PO4 (0.1M) and 81 ml of Na2HPO4 (0.1M), adjusted to 200 ml with WFI. • Phosphate buffer pH 7.4 at 100 mM-prepared from 38 ml NaH2PO4 (0.1M) and 162 ml of Na2HPO4 (0.1M), adjusted to 200 ml with WFI.
as §1
(§2) The suspension was then stirred at 400 rpm for 24 hours at room temperature. Each suspension was filtered through a 0.2 μm PVDF syringe filter.

[3] = Solubility study with different buffer salts at pH 7.4; conditions: for solubility thermodynamic at 24 h: pH 7.4, aqueous buffer, thermodynamic from solid
Procedure: Solubility Study with Different Buffer Salts at pH 7.4
Four buffers at pH 7.4 and 50 mM were assessed: • Phosphate buffer pH 7.4 at 50 mM-prepared from 19 ml of NaH2PO4 (0.1M) and 81 ml of Na2HPO4 (0.1M), adjusted to 200 ml with WFI. • Phosphate buffer pH 7.4 at 50 mM-prepared from 28.1 ml of KH2PO4 (0.2M) and 21.9 ml of NaOH (0.2M) adjusted to 200 ml with WFI. • Tris-HCl buffer pH 7.4 at 50 mM-prepared from 54.7 ml of tris(hydroxymethyl)aminomethane (0.1M) and 45.3 ml of hydrochloric acid (0.1M), adjusted to 200 ml with WFI. • Citrate phosphate buffer pH 7.4 at 50 mM-prepared from 2.4 ml of citric acid monohydrate (0.2M) and 47.6 ml of Na2HPO4 (0.2M), adjusted to 200 ml with WFI.
as §1, §2

[4] = Solubility study with different ionic strengths at pH 7.4; conditions: phosphate buffer with sodium chloride, pH 7.4, aqueous buffer, thermodynamic from solid, Concentration of Orellanine, stirred 24 hours at room temperature
Procedure: Solubility Study with Different Ionic Strengths at pH 7.4
The ionic strength of the NaH2PO4—Na2HPO4 buffer was adjusted by adding sodium chloride. The ionic strength of the NaH2PO4—Na2HPO4 buffer at 50 mM was estimated at around 130 mM. The proportion of sodium chloride in added to the buffers was 0.41%, 0.98%, and 2.15%.
as §2

[5] = Formulation adjustment: solubility in selected buffers plus 0.70% NaCl, pH adjusted twice; conditions: pH 7.4, aqueous buffer, thermodynamic from solid
Procedure: Two buffers were selected: NaH2PO4—Na2HPO4 pH 7.4 and Citrate-Na2HPO4 PH 7.4 at 50 mM, each with addition of 0.70% sodium chloride. Adding 0.70% sodium chloride provides a solution close to isotonicity.
Formulations were prepared by weighing 40 mg of Orellanine into a 5 ml vial, adding 2 ml of buffer, stirring the suspension for 1 hour, adjusting the pH to 7.4 with sodium hydroxide (0.2M), stirring the suspension at 400 rpm for 24 hours at room temperature, and adjusting the pH to 7.4 with sodium hydroxide (0.2M). Each suspension was filtered through a 0.2 μm PVDF syringe filter.

human renal cancer cells = conditions: cells derived from a primary tumor or from metastatic tumor tissue; disclosed in WO 2010/040750; cited from earlier work

[O-][n+]1ccc(O)c(O)c1-c1c(O)c(O)cc[n+]1[O-] [Orellanine]
solubility thermodynamic at 24 h ([1]; acetate buffer, pH 4.5, aqueous buffer): 2.4 µg/mL (≈ 0.00952 mM) | solubility thermodynamic at 24 h ([1]; phosphate buffer, pH 5.8, aqueous buffer): 29.9 µg/mL (≈ 0.119 mM) | solubility thermodynamic at 24 h ([1]; phosphate buffer, pH 6.8, aqueous buffer): 622 µg/mL (≈ 2.47 mM) | solubility thermodynamic at 24 h ([1]; phosphate buffer, pH 7.4, aqueous buffer): 1720 µg/mL (≈ 6.8 mM) | solubility at 24 h [2]: 3700 to 4900 µg/mL (≈ 14.7 to 19.4 mM) | solubility thermodynamic at 24 h ([2]; NaH2PO4—Na2HPO4 pH 7.4 25 mM, final pH 7.29, 92 mOsm): 3680 µg/mL (≈ 14.6 mM) | solubility thermodynamic at 24 h ([2]; NaH2PO4—Na2HPO4 pH 7.4 50 mM, final pH 7.33, 150 mOsm): 4880 µg/mL (≈ 19.4 mM) | solubility thermodynamic at 24 h ([2]; NaH2PO4—Na2HPO4 pH 7.4 100 mM, final pH 7.30, 242 mOsm): 4910 µg/mL (≈ 19.5 mM) | Concentration of Orellanine ([3]; NaH2PO4—Na2HPO4 pH 7.4, 50 mM, stirred 24 hours at room temperature, final pH 7.33, 150 mOsm): 4880 µg/mL | solubility thermodynamic at 24 h ([3]; Tris-HCl buffer): 4590 µg/mL | solubility thermodynamic at 24 h ([3]; citrate phosphate buffer): 5440 µg/mL | solubility thermodynamic at 24 h ([3]; phosphate buffer): 4560 µg/mL | solubility thermodynamic at 24 h ([4]; NaH2PO4—Na2HPO4 pH 7.4 at 50 mM plus 0.41% NaCl, final pH 7.26, 205 mOsm): 5310 µg/mL | solubility thermodynamic at 24 h ([4]; NaH2PO4—Na2HPO4 pH 7.4 at 50 mM plus 0.98% NaCl, final pH 7.19, 328 mOsm): 5900 µg/mL | solubility thermodynamic at 24 h ([4]; NaH2PO4—Na2HPO4 pH 7.4 at 50 mM plus 2.15% NaCl, final pH 7.30, 595 mOsm): 6430 µg/mL | solubility thermodynamic at 24 h ([5]; citrate phosphate buffer with sodium chloride): 10500 µg/mL | solubility at 24 h [5]: > 10000 µg/mL | solubility thermodynamic at 24 h ([5]; phosphate buffer with sodium chloride): 11100 µg/mL | Killing of human renal cancer cells (human renal cancer cells): killed them with great efficiency

From US20250387329A1 (priority 2022, published 2025)
